Experimental data as given in PubChem BioAssay AID1745844 (Carcinogenic Potency Database (CPDB), 2022).
“And” between values parts separate entries of the source, which are not always exact repeats. Equal values may be shown once. The source made the active and inactive calls. The rule behind the calls is not given here.

Tested on: rodent lifetime carcinogenesis bioassay, tumor incidence TD50
Assay: chronic cancer bioassays in animals – CPDB, compiled studies (AID 1745844)
Conditions: in feed

`ClC1=C(Cl)C2(Cl)C3C(Cl)C(Cl)CC3C1(Cl)C2(Cl)Cl` (configuration not stated) was tested, and the TD50 (mouse, strain B6C3F1, females, site: any site (literature study), lesion: several types, types named in the paper, dosed 80 weeks, study length 90 weeks) was 5.16 mg/kg/day, the TD50 (mouse, strain B6C3F1, females, site: liver, lesion: hepatocellular adenoma + hepatocellular carcinoma + neoplastic nodule, dosed 80 weeks, study length 90 weeks) was 4.89 mg/kg/day and the TD50 (mouse, strain B6C3F1, females, site: liver, lesion: hepatocellular carcinoma, dosed 80 weeks, study length 89 weeks) was 5.28 mg/kg/day. The TD50 (mouse, strain B6C3F1, females, site: liver, lesion: hepatocellular carcinoma, dosed 80 weeks, study length 90 weeks) was 4.89 mg/kg/day, the TD50 (mouse, strain B6C3F1, females, site: lung, lesion: alveolar/bronchiolar adenoma + alveolar/bronchiolar carcinoma, dosed 80 weeks, study length 90 weeks) was 228 mg/kg/day and the TD50 (mouse, strain B6C3F1, males, site: any site (literature study), lesion: several types, types named in the paper, dosed 80 weeks, study length 90 weeks) was 2.31 mg/kg/day. For the same compound, the TD50 (mouse, strain B6C3F1, males, site: liver, lesion: hepatocellular adenoma + hepatocellular carcinoma + neoplastic nodule, dosed 80 weeks, study length 90 weeks) was 2.15 mg/kg/day, the TD50 (mouse, strain B6C3F1, males, site: liver, lesion: hepatocellular adenoma, dosed 60 weeks, study length 61 weeks) was 0.903 mg/kg/day and the carcinogen call (mouse, strain B6C3F1, males, site: liver, lesion: hepatocellular adenoma, dosed 60 weeks, study length 68 weeks) was “positive”. For the same compound, the TD50 (mouse, strain B6C3F1, males, site: liver, lesion: hepatocellular adenoma, dosed 60 weeks, study length 72 weeks) was 0.727 mg/kg/day, the carcinogen call (mouse, strain B6C3F1, males, site: liver, lesion: hepatocellular adenoma, dosed 68 weeks, study length 68 weeks) was “positive” and the TD50 (mouse, strain B6C3F1, males, site: liver, lesion: hepatocellular adenoma, dosed 72 weeks, study length 72 weeks) was 1.96 mg/kg/day. It also gave a TD50 (mouse, strain B6C3F1, males, site: liver, lesion: hepatocellular carcinoma, dosed 60 weeks, study length 61 weeks) of 1.91 mg/kg/day, a TD50 (mouse, strain B6C3F1, males, site: liver, lesion: hepatocellular carcinoma, dosed 60 weeks, study length 68 weeks) of 1.49 mg/kg/day and a TD50 (mouse, strain B6C3F1, males, site: liver, lesion: hepatocellular carcinoma, dosed 60 weeks, study length 72 weeks) of 2.67 mg/kg/day. For the same compound, the TD50 (mouse, strain B6C3F1, males, site: liver, lesion: hepatocellular carcinoma, dosed 68 weeks, study length 68 weeks) was 0.878 mg/kg/day, the TD50 (mouse, strain B6C3F1, males, site: liver, lesion: hepatocellular carcinoma, dosed 72 weeks, study length 72 weeks) was 2.96 mg/kg/day and the TD50 (mouse, strain B6C3F1, males, site: liver, lesion: hepatocellular carcinoma, dosed 80 weeks, study length 89 weeks) was 2.48 mg/kg/day. The TD50 (mouse, strain B6C3F1, males, site: liver, lesion: hepatocellular carcinoma, dosed 80 weeks, study length 90 weeks) was 2.15 mg/kg/day, the TD50 (mouse, strain B6C3F1, males, site: liver, lesion: several types, types named in the paper, dosed 60 weeks, study length 61 weeks) was 0.583 mg/kg/day and the carcinogen call (mouse, strain B6C3F1, males, site: liver, lesion: several types, types named in the paper, dosed 60 weeks, study length 68 weeks) was “positive”. For the same compound, the carcinogen call (mouse, strain B6C3F1, males, site: liver, lesion: several types, types named in the paper, dosed 68 weeks, study length 68 weeks) was “positive”, the TD50 (mouse, strain B6C3F1, males, site: liver, lesion: several types, types named in the paper, dosed 72 weeks, study length 72 weeks) was 1.68 mg/kg/day and the TD50 (mouse, strain B6C3F1, males, site: lung, lesion: alveolar/bronchiolar adenoma + alveolar/bronchiolar carcinoma, dosed 80 weeks, study length 90 weeks) was 656 mg/kg/day. For the same compound, the TD50 (mouse, strain C57BL/10J, males, site: liver, lesion: several types, types named in the paper, dosed 104 weeks, study length 104 weeks) was 13.1 mg/kg/day, the TD50 (mouse, strain Charles River CD1, females, site: liver, lesion: hepatoma, dosed 78 weeks, study length 78 weeks) was 71.8 mg/kg/day and the TD50 (mouse, strain Charles River CD1, females, site: liver, lesion: nodular hyperplasia, dosed 78 weeks, study length 78 weeks) was 1.78 mg/kg/day. The TD50 (mouse, strain Charles River CD1, males, site: liver, lesion: nodular hyperplasia, dosed 78 weeks, study length 78 weeks) was 1.45 mg/kg/day, the TD50 (mouse, strain D2B6F1 mice, males, site: liver, lesion: hepatocellular adenoma, dosed 60 weeks, study length 61 weeks) was 2.33 mg/kg/day and the TD50 (mouse, strain D2B6F1 mice, males, site: liver, lesion: hepatocellular adenoma, dosed 69 weeks, study length 69 weeks) was 1.29 mg/kg/day. The TD50 (mouse, strain D2B6F1 mice, males, site: liver, lesion: hepatocellular adenoma, dosed 87 weeks, study length 87 weeks) was 4.98 mg/kg/day, the TD50 (mouse, strain D2B6F1 mice, males, site: liver, lesion: hepatocellular carcinoma, dosed 60 weeks, study length 61 weeks) was 6.09 mg/kg/day and the TD50 (mouse, strain D2B6F1 mice, males, site: liver, lesion: hepatocellular carcinoma, dosed 69 weeks, study length 69 weeks) was 3.31 mg/kg/day. The TD50 (mouse, strain D2B6F1 mice, males, site: liver, lesion: hepatocellular carcinoma, dosed 87 weeks, study length 87 weeks) was 5.21 mg/kg/day, the TD50 (mouse, strain D2B6F1 mice, males, site: liver, lesion: several types, types named in the paper, dosed 60 weeks, study length 61 weeks) was 1.93 mg/kg/day and the TD50 (mouse, strain D2B6F1 mice, males, site: liver, lesion: several types, types named in the paper, dosed 69 weeks, study length 69 weeks) was 1.03 mg/kg/day. For the same compound, the TD50 (mouse, strain D2B6F1 mice, males, site: liver, lesion: several types, types named in the paper, dosed 87 weeks, study length 87 weeks) was 3.83 mg/kg/day, the TD50 (mouse, strain ICR, females, site: liver, lesion: hepatocellular adenoma, dosed 106 weeks, study length 106 weeks) was 19.3 mg/kg/day and the TD50 (mouse, strain ICR, females, site: liver, lesion: hepatocellular carcinoma, dosed 106 weeks, study length 106 weeks) was 60 mg/kg/day. For the same compound, the TD50 (mouse, strain ICR, females, site: liver, lesion: several types, types named in the paper, dosed 106 weeks, study length 106 weeks) was 13.4 mg/kg/day, the TD50 (mouse, strain ICR, males, site: all sites, lesion: hemangioma, dosed 106 weeks, study length 106 weeks) was 4.01 mg/kg/day and the TD50 (mouse, strain ICR, males, site: liver, lesion: hepatocellular adenoma, dosed 106 weeks, study length 106 weeks) was 2.98 mg/kg/day. For the same compound, the TD50 (mouse, strain ICR, males, site: liver, lesion: hepatocellular carcinoma, dosed 106 weeks, study length 106 weeks) was 7.38 mg/kg/day, the TD50 (mouse, strain ICR, males, site: liver, lesion: several types, types named in the paper, dosed 106 weeks, study length 106 weeks) was 1.71 mg/kg/day and the TD50 (rat, strain Fischer 344, females, site: mammary gland, lesion: fibroadenoma, dosed 130 weeks, study length 130 weeks) was 0.32 mg/kg/day. The TD50 (rat, strain Fischer 344, males, site: liver, lesion: hepatocellular adenoma, dosed 130 weeks, study length 130 weeks) was 15.3 mg/kg/day, the TD50 (rat, strain Osborne-Mendel, females, site: any site (literature study), lesion: several types, types named in the paper, dosed 80 weeks, study length 109 weeks) was 18.4 mg/kg/day (inactive) and the TD50 (rat, strain Osborne-Mendel, females, site: liver, lesion: hepatocellular adenoma + hepatocellular carcinoma + neoplastic nodule, dosed 80 weeks, study length 109 weeks) was 121 mg/kg/day. The TD50 (rat, strain Osborne-Mendel, females, site: uterus, lesion: adenocarcinoma + sarcoma, dosed 80 weeks, study length 109 weeks) was 101 mg/kg/day (inactive), the TD50 (rat, strain Osborne-Mendel, males, site: all sites, lesion: fibrous histiocytoma, dosed 80 weeks, study length 109 weeks) was 42.5 mg/kg/day and 60.4 mg/kg/day (inactive) and the TD50 (rat, strain Osborne-Mendel, males, site: any site (literature study), lesion: several types, types named in the paper, dosed 80 weeks, study length 109 weeks) was 21.6 mg/kg/day. For the same compound, the TD50 (rat, strain Osborne-Mendel, males, site: thyroid gland, lesion: follicular-cell adenoma + follicular-cell carcinoma, dosed 80 weeks, study length 109 weeks) was 41.6 mg/kg/day (inactive).
